Assay results published in publication PMC8292346, “Dysfunction of the key ferroptosis-surveilling systems hypersensitizes mice to tubular necrosis during acute kidney injury” (Nature Communications, 2021).
Several values for one entry are separate records, joined by “and”; a condition that tells them apart may be missing. Equal values may be shown once. Entries after “also recorded” stand apart in the source; their conditions may differ.

What was measured:
[1] = Inhibited co-autoxidation of egg phosphatidylcholine liposomes and STY-BODIPY (radical-trapping antioxidant activity)
Procedure: Inhibitors were then added (5 μl aliquots) at desired concentrations to the appropriate wells followed by vigorous mixing. […] Experiments were performed in triplicate using HPLC grade solvents and kinetic data is given as an average of three independent measurements. […]

[2] = test system: HT29 cells; assay: TSZ-induced necroptosis, 7-AAD/annexin V flow cytometry; assay type: cell-based, human; settings: Nec-1f 10 µM
Procedure: (§1) To induce necroptosis in a human cell line, HT29 cells were stimulated at the indicated time points with 20 ng/ml human TNFα (Biolegend), 1 μM SMAC-mimetics (Birinapant, Chemietek), and 20 μM zVAD-fmk (Selleckchem, herein referred to as zVAD). For the induction of necroptosis in NIH3T3 cells, cells were incubated with 20 ng/ml TNF-α and 20 μM zVAD for indicated time points. […] Cells were seeded in six-well plates or petri dishes. […] After indicated time points, cells were collected and prepared for flow cytometry, immunoblotting, and/or LDH release assays.
(§2) Cells were harvested and the pellets were washed twice in PBS and stained with 5 μl of 7-AAD (BD Biosciences) and 5 μl of annexin-V-FITC (BD Biosciences) added to 100 μl annexin-V binding buffer (BD Biosciences). After 15 min, cells were recorded on the LSRII with the FACS Diva 6.1.1 software (BD Biosciences) and subsequently analyzed with the FlowJo v10 software (Tree Star).

[3] = test system: MLKL; assay: Western blot of pMLKL (S358) in TSZ-treated HT29 cells; assay type: cell-based, human; settings: Nec-1s 10 µM, Fer-1 1 µM, Nec-1f 10 µM
Procedure: as §1
(§3) Cells were lysed in ice-cold 10 mM Tris-HCl, pH 7.5, 50 mM NaCl, 1% Triton X-100, 30 mM sodium pyrophosphate, 50 mM NaF, 100 μM Na3VO4, 2 μM ZnCl2, and 1 mM phenylmethylsulfonyl fluoride (PMSF, modified Frackelton buffer) for 30 min on ice. Insoluble material was removed by centrifugation (14 000×g, 30 min, 4 °C). Protein concentration was determined using a commercial Bradford assay kit according to the manufacturer’s instructions (Thermo Fisher). Equal amounts of protein (typically 30 μg per lane) were resolved on a 4%−15% gradient SDS/PAGE gel and transferred to a PVDF membrane (BIO-RAD). Primary antibody incubation was performed for anti-pS166-RIPK1 (Cell Signaling, Cat# 65746, 1:1000 dilution), anti-pS358-MLKL, (Abcam, ab187091, 1:1000 dilution), anti-MLKL (Genetex, GTX107538, 1:1000 dilution) and anti-β-Actin (Cell Signaling, Cat# 3700S, 1:1000 dilution). Secondary antibodies (anti-mouse, HRP-linked antibody, Cell Signaling, Cat# 7076S; anti-rabbit, HRP-linked antibody, Cell Signaling, Cat# 7074S) were applied at concentrations of 1:5.000 (also see Supplementary Table 1 for details). Proteins were then visualized by enhanced chemiluminescence (ECL; Amersham Biosciences).

[4] = test system: RIPK1; assay: Western blot of pRIPK1 (S166) in TSZ-treated HT29 cells; assay type: cell-based, human; settings: Nec-1s 10 µM, Fer-1 1 µM, Nec-1f 10 µM
Procedure: as §1, §3

[5] = test system: HT1080 cells; assay: Ferroptosis inducers (FINs)/ferroptocide, 7-AAD/annexin V flow cytometry; assay type: cell-based, human; settings: for double-negative events (7-AAD/annexin V): alone (DMSO) or with Fer-1 1 µM
[6] = test system: NIH3T3 cells; assay: as above; assay type: cell-based, murine; settings: alone (DMSO) or with Fer-1 1 µM, Nec-1s 30 µM, Nec-1f 30 µM
How it was run: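 NIH3T3 cells were plated in six-well plates or petri dishes and collected after treatment. Pellets were rinsed twice in PBS, then stained with 5 μl of 7-AAD and 5 μl of annexin-V-FITC in 100 μl annexin-V binding buffer. After 15 min, events were acquired on an LSRII with FACS Diva 6.1.1 and analyzed in FlowJo v10.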

[7] = test system: NIH3T3 cells; assay: Simultaneous ferroptosis and necroptosis (RSL3 plus TZ), 7-AAD/annexin V flow cytometry; assay type: cell-based, murine
Procedure: as §1, §2

[8] = test system: HT1080 cells; assay: CellTiter-Glo luminescent cell viability assay (ATP), dose-response; assay type: cell-based, human
How it was run: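 Ferroptosis inducers and/or inhibitors were added to HT1080 cells 24 h after plating. Viability was read as ATP luminescence after adding CellTiter-Glo reagent, shaking 2 min and incubating 10 min at room temperature.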

[9] = test system: Mouse cortical tubule cells (MCT); assay: FINs/ferroptocide, 7-AAD/annexin V flow cytometry; assay type: cell-based; settings: for double-negative events (7-AAD/annexin V): MCT, alone (DMSO) or with Fer-1 1 µM, Nec-1s 30 µM, Nec-1f 30 µM
How it was run: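 Cells grown in six-well plates or petri dishes were collected, pelleted and washed twice with PBS. They were then stained in 100 μl annexin-V binding buffer with 5 μl 7-AAD and 5 μl annexin-V-FITC. After 15 min, events were acquired on an LSRII running FACS Diva 6.1.1 and analyzed in FlowJo v10.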

[10] = test system: CD10-135 cells; assay: FINs/ferroptocide, LDH release assay; assay type: cell-based, human; set-up: LDH release: unit not given here; settings: for LDH release: Nec-1f 30 µM
[11] = test system: NIH3T3 cells; assay: Ferroptosis inducers (FINs)/ferroptocide, 7-AAD/annexin V flow cytometry; assay type: cell-based, murine; settings: individual replicates

SMILES: CN1C(=O)C(Cc2c[nH]c3c(Cl)cccc23)NC1=S (stereo not shown) [Nec-1f]
- RTA activity in co-autoxidation of egg phosphatidylcholine lipids in STY-BODIPY-embedded liposomes [1]: devoid of RTA activity
- ΔSTY-BODIPY ([1]; 2 µM Nec-1f, time 53820 s): -0.4045 µM
- ΔSTY-BODIPY ([1]; 2 µM Nec-1f, time 53880 s): -0.4072 µM
- ΔSTY-BODIPY ([1]; 2 µM Nec-1f, time 53940 s): -0.4054 µM
- ΔSTY-BODIPY ([1]; 2 µM Nec-1f, time 54000 s): -0.4034 µM
- ΔSTY-BODIPY ([1]; 10 µM Nec-1f, time 53820 s): -0.5158 µM
- ΔSTY-BODIPY ([1]; 10 µM Nec-1f, time 53880 s): -0.5141 µM
- ΔSTY-BODIPY ([1]; 10 µM Nec-1f, time 53940 s): -0.5142 µM
- ΔSTY-BODIPY ([1]; 10 µM Nec-1f, time 54000 s): -0.5122 µM
- 7-AAD/annexin V flow cytometry, source data of bar graph Fig2e ([2]; HT29, TSZ (TNFα 20 ng/ml, birinapant 1 µM, zVAD-fmk 20 µM) 16 h): 80.1% and 85.8% and 92.9% and 83.9% and 82.2% and 61.2% and 88.8% and 88.1%
- Protection against TSZ-induced necroptosis (7-AAD/annexin V, words) ([2]; HT29, TSZ): maintained double negativity
- Phosphorylation of MLKL (pS358), western blot [3]: prevented phosphorylation
- Phosphorylation of RIPK1 at S166, western blot [4]: prevented phosphorylation at S166 in RIPK1
- Prevention of FINO2-induced ferroptosis ([5]; HT1080): less effective
- double-negative events (7-AAD/annexin V) ([5]; HT1080, 1.13 µM RSL3 6 h, Nec-1s 30 µM, Nec-1f 30 µM): 88% and 71.9% and 83.1% and 89.5%
- double-negative events (7-AAD/annexin V) ([5]; HT1080, 10 µM FIN56 24 h, Nec-1s 30 µM, Nec-1f 30 µM): 82.6% and 86.1% and 84.4%
- double-negative events (7-AAD/annexin V) ([5]; HT1080, 10 µM FINO2 24 h, Nec-1s 30 µM, Nec-1f 30 µM): 80.8% and 51.5% and 65.9% and 53.8%
- Inhibition of cell death induction by FINs/ferroptocide ([5]; HT1080, Fer-1 1 µM, Nec-1s 30 µM, Nec-1f 30 µM): inhibition of cell death induction
- double-negative events (7-AAD/annexin V) ([6]; NIH3T3, 1.13 µM RSL3 6 h): 88.9% and 61.8% and 72.9% and 86.1% and 70.3% and 57.8% and 80.3%
- double-negative events (7-AAD/annexin V) ([6]; NIH3T3, 10 µM FIN56 24 h): 88.1% and 87.8% and 92.6%
- Rescue from necrosis induced by RSL3 plus TZ ([7]; NIH3T3, 16 h): Nec-1f does; also recorded: maintained cell viability
- 7-AAD/annexin V flow cytometry, source data of bar graph Fig3c ([7]; NIH3T3, RSL3 (1.13 µM) + TZ 16 h with inhibitor): 75.7% and 76% and 68%
- ATP luminescence (CellTiterGlo) ([8]; HT1080 + Erastin, inhibitor concentration 0.01 (unit not given)): 6.81%
- ATP luminescence (CellTiterGlo) ([8]; HT1080 + Erastin, inhibitor concentration 0.1 (unit not given)): 7.52%
- ATP luminescence (CellTiterGlo) ([8]; HT1080 + Erastin, inhibitor concentration 1 (unit not given)): 8.325%
- ATP luminescence (CellTiterGlo) ([8]; HT1080 + Erastin, inhibitor concentration 10 (unit not given)): 21.5066%
- ATP luminescence (CellTiterGlo) ([8]; HT1080 + Erastin, inhibitor concentration 30 (unit not given)): 111.285%
- ATP luminescence (CellTiterGlo) ([8]; HT1080 + Ferroptocide, inhibitor concentration 0.01 (unit not given)): 1.591% and 1.035%
- ATP luminescence (CellTiterGlo) ([8]; HT1080 + Ferroptocide, inhibitor concentration 0.1 (unit not given)): 1.25% and 2.131%
- ATP luminescence (CellTiterGlo) ([8]; HT1080 + Ferroptocide, inhibitor concentration 1 (unit not given)): 5.941% and 7.943%
- ATP luminescence (CellTiterGlo) ([8]; HT1080 + Ferroptocide, inhibitor concentration 10 (unit not given)): 11.997% and 7.702%
- ATP luminescence (CellTiterGlo) ([8]; HT1080 + RSL3, inhibitor concentration 0.01 (unit not given)): 48.1449% and 58.3128%
- ATP luminescence (CellTiterGlo) ([8]; HT1080 + RSL3, inhibitor concentration 0.1 (unit not given)): 48.8384% and 72.7198%
- ATP luminescence (CellTiterGlo) ([8]; HT1080 + RSL3, inhibitor concentration 1 (unit not given)): 51.482% and 85.4435%
- ATP luminescence (CellTiterGlo) ([8]; HT1080 + RSL3, inhibitor concentration 10 (unit not given)): 49.7032% and 98.9558%
- ATP luminescence (CellTiterGlo) ([8]; HT1080 + RSL3, inhibitor concentration 30 (unit not given)): 46.9784% and 93.7693%
- Effect on FINO2-induced death ([9]; MCT cells): failed to prevent
- Effect on RSL3-induced annexin V / 7-AAD positivity ([9]; MCT cells): inhibited
- double-negative events (7-AAD/annexin V) ([9]; 1.13 µM RSL3 6 h): 93.7% and 87.8% and 51.4%
- double-negative events (7-AAD/annexin V) ([9]; 5 µM erastin 24 h): 79.8% and 85.4% and 81.9% and 88.8%
- double-negative events (7-AAD/annexin V) ([9]; 10 µM FIN56 24 h): 93.7% and 87.9% and 91.7%
- LDH release ([10]; CD10-135, FIN56 alone (FIN) or with Fer-1, Nec-1s): 25.01 and 21.5704 and 29.6875
- LDH release ([10]; CD10-135, FINO2 alone (FIN) or with Fer-1, Nec-1s): 27.07 and 34.1078 and 34.3349
- LDH release ([10]; CD10-135, RSL3 alone (FIN) or with Fer-1, Nec-1s): 36.35 and 26.8291
- LDH release ([10]; CD10-135, erastin alone (FIN) or with Fer-1, Nec-1s): 25.13 and 17.5 and 32.5
- LDH release ([10]; CD10-135, ferroptocide alone (FIN) or with Fer-1, Nec-1s): 89.05 and 90.3713
- Effect on FIN-induced LDH release ([10]; CD10-135 cells): reversed
- cells in 7-AAD/annexin V flow cytometry (FigS9b) ([11]; Erastin-induced ferroptosis): 83.1% and 77.0% and 78.0% and 47.0%
- cells in 7-AAD/annexin V flow cytometry (FigS9b) ([11]; FIN56-induced ferroptosis): 88.0% and 64.0%
- cells in 7-AAD/annexin V flow cytometry (FigS9b) ([11]; FINO2-induced ferroptosis): 75.0% and 57.0%
- cells in 7-AAD/annexin V flow cytometry (FigS9b) ([11]; Ferroptocide-induced cell death): 80.0% and 8.0%
- cells in 7-AAD/annexin V flow cytometry (FigS9b) ([11]; RSL3-induced ferroptosis): 80.0% and 84.0%
